For this experiment, the system named is L1210 leukemia ip in BDF1 mice, survival T/C. The experiment can be described thus: NCI In Vivo Anticancer Drug Screen. Data for tumor model L1210 Leukemia (intraperitoneal) in B6D2F1 (BDF1) mice. The conditions noted are these: endpoint: mean survival time, higher = longer survival. Put shortly: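 Transplantable tumor model; survival measured in treated vs vehicle control mice. Value = treated/control.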

The mark [1] stands for this setting: dose: 50.0 mg/kg/injection, schedule: Q01DX001 (ip), vehicle: saline.
[2] abbreviates: dose: 100.0 mg/kg/injection, schedule: Q01DX001 (ip), vehicle: saline.
Where [3] appears, read: dose: 200.0 mg/kg/injection, schedule: Q01DX001 (ip), vehicle: saline.
[4] abbreviates: dose: 400.0 mg/kg/injection, schedule: Q01DX001 (ip), vehicle: saline.
[5] abbreviates: dose: 100.0 mg/kg/injection, schedule: Q04DX002 (ip), vehicle: Klucel (hydroxypropylcellulose) (HPC).
Setting [6] is: dose: 100.0 mg/kg/injection, schedule: Q04DX003 (ip), vehicle: Klucel (hydroxypropylcellulose) (HPC).
Where [7] appears, read: dose: 200.0 mg/kg/injection, schedule: Q04DX003 (ip), vehicle: Klucel (hydroxypropylcellulose) (HPC).
Setting [8] is: dose: 400.0 mg/kg/injection, schedule: Q04DX003 (ip), vehicle: Klucel (hydroxypropylcellulose) (HPC).
Where [9] appears, read: dose: 100.0 mg/kg/injection, schedule: Q01DX001 (ip), vehicle: Klucel (hydroxypropylcellulose) (HPC).
Setting [10] is: dose: 200.0 mg/kg/injection, schedule: Q01DX001 (ip), vehicle: Klucel (hydroxypropylcellulose) (HPC).
The mark [11] stands for this setting: dose: 25.0 mg/kg/injection, schedule: Q01DX009 (ip), vehicle: saline.
[12] abbreviates: dose: 50.0 mg/kg/injection, schedule: Q01DX009 (ip), vehicle: saline.
Setting [13] is: dose: 100.0 mg/kg/injection, schedule: Q04DX003 (ip), vehicle: saline with Tween-80.
Setting [14] is: dose: 200.0 mg/kg/injection, schedule: Q04DX003 (ip), vehicle: saline with Tween-80.
Setting [15] is: dose: 400.0 mg/kg/injection, schedule: Q04DX003 (ip), vehicle: saline with Tween-80.
The mark [16] stands for this setting: dose: 100.0 mg/kg/injection, schedule: Q01DX009 (ip), vehicle: Klucel (hydroxypropylcellulose) (HPC).
The mark [17] stands for this setting: dose: 200.0 mg/kg/injection, schedule: Q01DX009 (ip), vehicle: Klucel (hydroxypropylcellulose) (HPC).

Several values for one entry are separate records, joined by “and”; a condition that tells them apart may be missing. Equal values may be shown once. Inconclusive results and toxic doses are left out.

Consider `O=P1(Nc2ccc(Cl)cc2)OCC2(CO1)COP(=O)(Nc1ccc(Cl)cc1)OC2` (centres undefined), for which the T/C is, setting by setting: under setting [1], 98 % of control; under setting [2], 93 % of control; under setting [3], 101 % of control; under setting [4], 117 % of control.

For `CCOC(=O)COc1ccc(-c2ccccc2)cc1Br`, the T/C is, setting by setting: under setting [5], 104 % of control; (dose: 200.0 mg/kg/injection, schedule: Q04DX002 (ip), vehicle: Klucel (hydroxypropylcellulose) (HPC)) 104 % of control; (dose: 400.0 mg/kg/injection, schedule: Q04DX002 (ip), vehicle: Klucel (hydroxypropylcellulose) (HPC)) 104 % of control.

As to `CCOC(=O)CN1C(C)C1C(C)C` (centres undefined), the T/C under setting [6] was 114 % of control, the T/C under setting [7] was 100 % of control and the T/C under setting [8] was 104 % of control.

As for `O=C(CCCC(=O)N/N=C/c1cc(O)ccc1O)N/N=C\c1cc(O)ccc1O`, the T/C under setting [1] was 102 % of control, the T/C under setting [2] is 96 % of control, the T/C under setting [3] is 90 % of control and the T/C under setting [4] is 98 % of control.

`COC1c2ccccc2CC1(C)C` (centres undefined): the T/C is, setting by setting: (dose: 100.0 mg/kg/injection, schedule: Q04DX002 (ip), vehicle: saline) 118 % of control; (dose: 200.0 mg/kg/injection, schedule: Q04DX002 (ip), vehicle: saline) 105 % of control; (dose: 400.0 mg/kg/injection, schedule: Q04DX002 (ip), vehicle: saline) 94 % of control.

On to `O=C(COc1ccccc1)Nc1cccnc1`, for which the T/C by setting is: under setting [9], 94 % of control; under setting [10], 102 % of control.

On to `c1ccc(C[N+]23CCN(CC2)CC3)cc1`, for which the T/C is 119 % of control (dose: 12.5 mg/kg/injection, schedule: Q01DX009 (ip), vehicle: saline); 109 % of control under setting [11]; 108 % of control under setting [12].

As to `Brc1cnc(Br)s1`, the T/C (dose: 44.0 mg/kg/injection, schedule: Q04DX002 (ip), vehicle: Klucel (hydroxypropylcellulose) (HPC)) was 97 % of control; the T/C (dose: 67.0 mg/kg/injection, schedule: Q04DX002 (ip), vehicle: Klucel (hydroxypropylcellulose) (HPC)) was 109 % of control; the T/C under setting [5] was 116 % of control; the T/C (dose: 150.0 mg/kg/injection, schedule: Q04DX002 (ip), vehicle: Klucel (hydroxypropylcellulose) (HPC)) was 113 % of control.

`O=C(O)CS(=O)(=O)Cc1ccccc1`: the T/C reads like this: under setting [13], 97 % of control; under setting [14], 90 % of control.

`COc1ccc(/C=C2\CS(=O)(=O)C/C(=C\c3ccc(OC)cc3)C2=O)cc1`: the T/C reads like this: under setting [2], 94 % of control; under setting [4], 95 % of control.

Turning to `COc1cc(C)c(C=O)cc1OC`, the T/C runs as follows: (dose: 5.0 mg/kg/injection, schedule: Q01DX001 (ip), vehicle: saline) 103 % of control; (dose: 10.0 mg/kg/injection, schedule: Q01DX001 (ip), vehicle: saline) 107 % of control; (dose: 20.0 mg/kg/injection, schedule: Q01DX001 (ip), vehicle: saline) 97 % of control; (dose: 40.0 mg/kg/injection, schedule: Q01DX001 (ip), vehicle: saline) 101 % of control; (dose: 80.0 mg/kg/injection, schedule: Q01DX001 (ip), vehicle: saline) 109 % of control.

With `CC(C)N(C(=O)C1C2CCC(CC2)C1C(=O)N(C(C)C)C(C)C)C(C)C` (centres undefined), the T/C (dose: 100.0 mg/kg/injection, schedule: Q04DX003 (ip), vehicle: saline) was 100 % of control; the T/C (dose: 200.0 mg/kg/injection, schedule: Q04DX003 (ip), vehicle: saline) is 100 % of control; the T/C (dose: 400.0 mg/kg/injection, schedule: Q04DX003 (ip), vehicle: saline) is 100 % of control.

Turning to `CC[C@H](CC[C@@H](C)[C@H]1CC[C@H]2[C@@H]3CC=C4C[C@@H](OC(=O)CSC(CC(=O)O)C(=O)O)CC[C@]4(C)[C@H]3CC[C@]12C)C(C)C` (some centres undefined), the T/C (dose: 100.0 mg/kg/injection, schedule: Q01DX001 (ip), vehicle: water) is 98 % of control; the T/C (dose: 200.0 mg/kg/injection, schedule: Q01DX001 (ip), vehicle: water) is 86 % of control; the T/C (dose: 400.0 mg/kg/injection, schedule: Q01DX001 (ip), vehicle: water) is 93 % of control.

Take `COP(=NC(C)=O)(OC)OC`: the T/C is, setting by setting: (dose: 100.0 mg/kg/injection, schedule: Q01DX009 (ip), vehicle: saline with Tween-80) 101 % of control; under setting [13], 97 % of control; (dose: 200.0 mg/kg/injection, schedule: Q01DX009 (ip), vehicle: saline with Tween-80) 101 % of control; under setting [14], 104 % of control; (dose: 400.0 mg/kg/injection, schedule: Q01DX009 (ip), vehicle: saline with Tween-80) 102 % of control; under setting [15], 106 % of control.

`CC(=O)NNc1ccnc(SCc2ccccc2)n1`: the T/C (dose: 100.0 mg/kg/injection, schedule: Q04DX003 (ip), vehicle: gum acacia) was 94 % of control; the T/C (dose: 200.0 mg/kg/injection, schedule: Q04DX003 (ip), vehicle: gum acacia) was 87 % of control; the T/C (dose: 400.0 mg/kg/injection, schedule: Q04DX003 (ip), vehicle: gum acacia) is 94 % of control.

For the molecule `Cc1cc(OC(=O)/C=C/C(=O)Oc2cc(C)c(Cl)c(C)c2)cc(C)c1Cl`, the T/C under setting [16] is 97 % of control; the T/C under setting [6] was 105 % of control; the T/C under setting [17] is 95 % of control; the T/C under setting [7] is 104 % of control; the T/C (dose: 400.0 mg/kg/injection, schedule: Q01DX009 (ip), vehicle: Klucel (hydroxypropylcellulose) (HPC)) is 97 % of control; the T/C under setting [8] is 104 % of control.

As for `CC(=O)OCCN1CCN(CCCN2c3ccccc3Sc3ccc(C(F)(F)F)cc32)CC1`, the T/C runs as follows: (dose: 9.5 mg/kg/injection, schedule: Q04DX003 (ip), vehicle: saline with Tween-80) 114 % of control; (dose: 12.5 mg/kg/injection, schedule: Q04DX003 (ip), vehicle: saline) 106 % of control; (dose: 22.0 mg/kg/injection, schedule: Q04DX003 (ip), vehicle: saline with Tween-80) 120 % of control and 123 % of control; (dose: 25.0 mg/kg/injection, schedule: Q04DX003 (ip), vehicle: saline) 116 % of control; (dose: 33.0 mg/kg/injection, schedule: Q04DX003 (ip), vehicle: saline sonified) 93 % of control; (dose: 33.3 mg/kg/injection, schedule: Q04DX003 (ip), vehicle: saline with Tween-80) 102 % of control. Further, the T/C by setting is: (dose: 50.0 mg/kg/injection, schedule: Q04DX003 (ip), vehicle: saline with Tween-80) 150 % of control; under setting [2], 106 % of control.

For `O=[N+]([O-])c1ccn(O)c(=Nc2ccccc2)c1`, the T/C runs as follows: under setting [2], 108 % of control; under setting [3], 104 % of control; under setting [4], 100 % of control.

Consider `CCCCC(C#N)C(=O)OCC` (centres undefined), for which the T/C runs as follows: under setting [6], 97 % of control; under setting [7], 94 % of control; under setting [8], 87 % of control.

For the molecule `BrCC1(c2ccccc2)OCCO1`, the T/C by setting is: under setting [9], 100 % of control; under setting [16], 89 % of control; under setting [10], 92 % of control; under setting [17], 89 % of control; (dose: 400.0 mg/kg/injection, schedule: Q01DX001 (ip), vehicle: Klucel (hydroxypropylcellulose) (HPC)) 98 % of control.

With `CCCCCC/C(=C\c1ccc(O)cc1)C(=O)O`, the T/C (dose: 50.0 mg/kg/injection, schedule: Q01DX001 (ip), vehicle: carboxymethylcellulose (CMC)) is 97 % of control; the T/C (dose: 100.0 mg/kg/injection, schedule: Q01DX001 (ip), vehicle: carboxymethylcellulose (CMC)) was 103 % of control; the T/C (dose: 200.0 mg/kg/injection, schedule: Q01DX001 (ip), vehicle: carboxymethylcellulose (CMC)) was 105 % of control; the T/C (dose: 400.0 mg/kg/injection, schedule: Q01DX001 (ip), vehicle: carboxymethylcellulose (CMC)) was 100 % of control.

With `COC12C[C@]34CCCN3CC(O1)c1cc3c(cc1[C@@H]4[C@@H]2O)OCO3`, the T/C reads like this: under setting [11], 105 % of control; under setting [12], 112 % of control.

`Cc1ccc(S(=O)(=O)OCCOCCOS(=O)(=O)c2ccc(C)cc2)cc1`: the T/C reads like this: under setting [13], 100 % of control; under setting [14], 104 % of control; under setting [15], 100 % of control.
